PubChem BioAssay (NCI)
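1) Cells in 96-well plates. 2) Compound, 48 h, 5 concentrations. 3) Linear interpolation between surrounding doses. 4) Unreached endpoint = highest concentration. TGI is the concentration that stops growth completely.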

Experiments:
Test in all cases: NCI-60 cell line screen, 48 h
IGROV1 ovarian = system: IGROV1 ovarian
UO-31 renal = system: UO-31 renal
KM12 colon = system: KM12 colon
UACC-257 melanoma = system: UACC-257 melanoma
OVCAR-8 ovarian = system: OVCAR-8 ovarian
EKVX NSCLC = system: EKVX NSCLC
MDA-MB-231 breast = system: MDA-MB-231 breast
ACHN renal = system: ACHN renal
A549 NSCLC = system: A549 NSCLC
SF-295 CNS = system: SF-295 CNS
SNB-19 CNS = system: SNB-19 CNS
RPMI-8226 leukemia = system: RPMI-8226 leukemia
MDA-MB-435 = system: MDA-MB-435
COLO 205 colon = system: COLO 205 colon
K-562 leukemia = system: K-562 leukemia
U251 CNS = system: U251 CNS
HT29 colon = system: HT29 colon
MDA-N = system: MDA-N
A498 renal = system: A498 renal
MALME-3M melanoma = system: MALME-3M melanoma
DU-145 prostate = system: DU-145 prostate
T-47D breast = system: T-47D breast
HCT-15 colon = system: HCT-15 colon
NCI-H460 lung = system: NCI-H460 lung
OVCAR-5 ovarian = system: OVCAR-5 ovarian
NCI-H522 lung = system: NCI-H522 lung
SR leukemia = system: SR leukemia
SK-MEL-5 melanoma = system: SK-MEL-5 melanoma
SK-MEL-2 melanoma = system: SK-MEL-2 melanoma
SNB-75 CNS = system: SNB-75 CNS
MCF7 breast = system: MCF7 breast
HOP-92 NSCLC = system: HOP-92 NSCLC
TK-10 renal = system: TK-10 renal
CCRF-CEM leukemia = system: CCRF-CEM leukemia
NCI/ADR-RES ovarian = system: NCI/ADR-RES ovarian
CAKI-1 renal = system: CAKI-1 renal
HCC-2998 colon = system: HCC-2998 colon
OVCAR-4 ovarian = system: OVCAR-4 ovarian
HCT-116 colon = system: HCT-116 colon
UACC-62 melanoma = system: UACC-62 melanoma
M14 melanoma = system: M14 melanoma
HS 578T breast = system: HS 578T breast
SW-620 colon = system: SW-620 colon
HOP-62 NSCLC = system: HOP-62 NSCLC
OVCAR-3 ovarian = system: OVCAR-3 ovarian
NCI-H226 lung = system: NCI-H226 lung
LOX IMVI melanoma = system: LOX IMVI melanoma
SK-MEL-28 melanoma = system: SK-MEL-28 melanoma
SN12C renal = system: SN12C renal
SF-539 CNS = system: SF-539 CNS
PC-3 prostate = system: PC-3 prostate
SF-268 CNS = system: SF-268 CNS
SK-OV-3 ovarian = system: SK-OV-3 ovarian
786-0 renal = system: 786-0 renal
RXF 393 renal = system: RXF 393 renal
NCI-H23 lung = system: NCI-H23 lung
BT-549 breast = system: BT-549 breast

COc1ccc(OC)c(C(=O)/C=C/c2cc(O)c(O)cc2F)c1
TGI (IGROV1 ovarian): 34.2 µM | TGI (UO-31 renal): 28.7 µM | TGI (KM12 colon): 13.8 µM | TGI (UACC-257 melanoma): 18.3 µM | TGI (OVCAR-8 ovarian): 24.3 µM | TGI (EKVX NSCLC): > 77.4 µM | TGI (MDA-MB-231 breast): 11.4 µM | TGI (ACHN renal): > 50.3 µM | TGI (A549 NSCLC): > 82.7 µM | TGI (SF-295 CNS): 9.25 µM | TGI (SNB-19 CNS): > 35 µM | TGI (RPMI-8226 leukemia): 7.83 µM | TGI (MDA-MB-435): 0.99 µM | TGI (COLO 205 colon): 31.7 µM | TGI (K-562 leukemia): > 27.8 µM | TGI (U251 CNS): 12.3 µM | TGI (HT29 colon): 29.3 µM | TGI (MDA-N): 0.534 µM | TGI (A498 renal): 12.5 µM | TGI (MALME-3M melanoma): 27.4 µM | TGI (DU-145 prostate): 15.1 µM | TGI (T-47D breast): > 100 µM | TGI (HCT-15 colon): 13.5 µM | TGI (NCI-H460 lung): 9.27 µM | TGI (OVCAR-5 ovarian): 38.9 µM | TGI (NCI-H522 lung): 0.948 µM | TGI (SR leukemia): 4.62 µM | TGI (SK-MEL-5 melanoma): 12.4 µM | TGI (SK-MEL-2 melanoma): 9.51 µM | TGI (SNB-75 CNS): 28.2 µM | TGI (MCF7 breast): 14.3 µM | TGI (HOP-92 NSCLC): > 67 µM | TGI (TK-10 renal): 21.6 µM | TGI (CCRF-CEM leukemia): 15.7 µM | TGI (NCI/ADR-RES ovarian): > 89.5 µM | TGI (CAKI-1 renal): 27.6 µM | TGI (HCC-2998 colon): 1.98 µM | TGI (OVCAR-4 ovarian): > 90 µM | TGI (HCT-116 colon): 11.5 µM | TGI (UACC-62 melanoma): 11.7 µM | TGI (M14 melanoma): 19.7 µM | TGI (HS 578T breast): > 100 µM | TGI (SW-620 colon): > 66.5 µM | TGI (HOP-62 NSCLC): 29.2 µM | TGI (OVCAR-3 ovarian): 1.59 µM | TGI (NCI-H226 lung): 15.4 µM | TGI (LOX IMVI melanoma): 16.1 µM | TGI (SK-MEL-28 melanoma): 35.8 µM | TGI (SN12C renal): 5.8 µM | TGI (SF-539 CNS): 0.626 µM | TGI (PC-3 prostate): 17.1 µM | TGI (SF-268 CNS): > 44.9 µM | TGI (SK-OV-3 ovarian): > 67.5 µM | TGI (786-0 renal): 17.6 µM | TGI (RXF 393 renal): 23.5 µM | TGI (NCI-H23 lung): 10.4 µM | TGI (BT-549 breast): 19.6 µM
